The subject of one data set is laboratory animal. As to the kind of experiment: toxicity on injection of fluorocarbon emulsion into veins. The following applies: emulsion injected into the veins. In kind it is in vivo, laboratory animals. As for the experimental part: (§1) The present invention is specific in a number of aspects both as to the nature of materials used and the particle sizes and the like, of the resulting emulsion. These parameters were not arrived at casually but rather were determined through a systematic course of investigations which are discussed below. Parameters not expressly discussed below will be apparent to the skilled worker and appropriate conditions will be appreciated. Fluorocarbon - The sole fluorocarbons applicable to the present invention are perfluorodecalin or perfluoromethyldecalin or their mixture. A surfactant or emulsifying agent is also used and surfactant capable of emulsifying and stabilizing these fluorocarbons is egg yolk lecithin and preferably in an amount of from about 3 W/V % to 5 W/V % based on emulsion. There are a number of good reasons for the specificity of the fluorocarbon compounds that are useful.

A short description of data set [1]: accumulation of intravenously injected fluorocarbon in liver and spleen. It counts as in vivo, laboratory animals. The following applies: for fluorocarbon administered remaining in the organs (liver and spleen): 8 weeks from administration. As for the experimental part:
as §1
On the other hand when an emulsion of perfluorodecalin and perfluoromethyldecalin is injected into the veins, of laboratory animals their accumulated in the animal's liver and spleen is very small. For example, perfluorodecalin is as low as zero % and perfluoromethyldecalin is 1.5% even after 8 weeks.

In the case of `FC(F)(F)C(F)(F)C(F)(F)C(F)(F)C1(F)OC(F)(F)C(F)(F)C1(F)F` (centres unmarked) [FX-80, perfluorobutyltetrahydrofuran], in the data set with laboratory animal, the “lung hazard” value was “a remarkable lung hazard appears” and the “toxicity” value was “its toxicity is quite high”.

Take `FC(F)(F)C(F)(F)C(F)(F)C(F)(F)N(C(F)(F)C(F)(F)C(F)(F)C(F)(F)F)C(F)(F)C(F)(F)C(F)(F)C(F)(F)F` [FC-43, perfluorotributylamine]: in data set [1] (i.v. emulsion), the “accumulation in the animal's liver and spleen” value (“accumulation” below) was “most of these fluorocarbons are accumulated in the animal's liver and spleen”; the “fluorocarbon administered remaining in the organs (liver and spleen)” value (“fluorocarbon administered remaining” below) is recorded as “up to 40%”. Moreover, in the data set on laboratory animal, the “toxicity” value is “the toxicity resulting from the accumulation appears”.

For the compound perfluoromethyldecalin, in data set [1] (i.v. emulsion), the “accumulation” value is listed as “very small”; the “fluorocarbon administered remaining” value was 1.5%.

On to `FC1(F)C(F)(F)C(F)(F)C2(F)C(F)(F)C(F)(F)C(F)(F)C(F)(F)C2(F)C1(F)F` (centres unmarked) [perfluorodecalin], for which, in data set [1] (in vivo, iv), the “accumulation” value is listed as “very small”.

As for `FC(OC(F)(F)C(F)(OC(F)(F)C(F)(OC(F)(F)C(F)(OC(F)(F)C(F)(F)C(F)(F)F)C(F)(F)F)C(F)(F)F)C(F)(F)F)C(F)(F)F` (centres unmarked) [Freon E4, 2-monohydro-nonacosafluoro3,6,9,12-tetraoxa-5,8,11-trimethylpentadecane], in data set [1] (i.v. emulsion), the “accumulation” value is “most of these fluorocarbons are accumulated in the animal's liver and spleen”; the “fluorocarbon administered remaining” value is recorded as “up to 40%”. Also, in the data set with laboratory animal, the “toxicity” value is “the toxicity resulting from the accumulation appears”.
